Reference: US20220324865A1 (Bayer Aktiengesellschaft, priority 2018, published 2022)

Target: T1, human EP3 receptor (Homo sapiens, UniProt P43115)
T1 construct: expressed in transfected cells; host or cells: CHO K1 (Chinese Hamster Ovary), stably co-transfected with Galpha16 and mitochondrial clytin
T1 sequence (P43115 1-390): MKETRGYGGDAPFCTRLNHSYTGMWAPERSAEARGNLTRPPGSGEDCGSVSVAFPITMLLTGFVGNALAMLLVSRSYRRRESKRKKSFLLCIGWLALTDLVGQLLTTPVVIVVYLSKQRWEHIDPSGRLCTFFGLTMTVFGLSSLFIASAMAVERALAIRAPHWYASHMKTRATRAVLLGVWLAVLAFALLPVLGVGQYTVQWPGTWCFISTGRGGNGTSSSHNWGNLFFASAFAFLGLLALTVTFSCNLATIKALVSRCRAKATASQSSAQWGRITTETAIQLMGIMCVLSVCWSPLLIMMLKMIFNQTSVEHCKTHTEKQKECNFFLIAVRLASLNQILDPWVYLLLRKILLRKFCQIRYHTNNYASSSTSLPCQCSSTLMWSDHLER
Experiment: Cellular in vitro assay for determining EP3 receptor activity (human EP3 cell line, sulprostone-stimulated calcium luminescence)
Assay type: cell-based
Settings: CHO cells expressing human EP3 and mitochondrial Clytin; antagonist mode, sulprostone at EC50; read-out: EP3 CHO mtCLY ANTAG IC50
Summary of the method: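 CHO K1 cells stably expressing human EP3 with Gα16 and mitochondrial Clytin, loaded overnight with coelenterazine. Compounds added 10 min before sulprostone at its EC50; antagonism read immediately as reduced calcium-driven luminescence, quadruplicate points.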

Row | SMILES | IC50
1 | Cc1ccc(-c2cn3nc(C(=O)N[C@H](C)C(C)C)c(C(C)C)c3c(=O)[nH]2)cc1C [Example 1-141, 6-(3,4-Dimethylphenyl)-N-[(2R)-3-methylbutan-2-yl]-4-oxo-3-(propan-2-yl)-4,5-dihydropyrazolo-[1,5-a]pyrazine-2-carboxamide] | 1.7 nM
2 | Cc1ccc(-c2cn3nc(C(=O)N[C@@H](CCO)c4ccc(F)cc4)cc3c(=O)[nH]2)cc1C [Example 1-70, 6-(3,4-Dimethylphenyl)-N-[(1S)-1-(4-fluorophenyl)-3-hydroxpropyl]-4-oxo-4,5-dihydropyrazolo-[1,5-a]pyrazine-2-carboxamide] | 3.15 nM
3 | O=C(NCCC(F)(F)F)c1cc2c(=O)[nH]c(-c3ccc4cccc(F)c4c3)cn2n1 [6-41] | 6.03 nM
4 | Cc1cccc2ncc(-c3cn4nc(C(=O)NCCOCC(F)(F)F)c(C(C)C)c4c(=O)[nH]3)cc12 [Example 4-39, 6-(5-Methylquinolin-3-yl)-4-oxo-3-(propan-2-yl)-N-[2-(2,2,2-trifluoroethoxy)ethyl]-4,5-dihydropyrazolo[1,5-a]pyrazine-2-carboxamide] | 1.85 nM
5 | Cc1cc(-c2cn3nc(C(=O)N[C@@H](c4ccc(F)cc4)[C@@H](O)C(F)(F)F)c(C4CC4)c3c(=O)[nH]2)ccc1Cl [6-316] | 0.74 nM
6 | Cc1ccc(-c2cn3nc(C(=O)N[C@H](C)C4CC4)c(C4CC4)c3c(=O)[nH]2)cc1Cl [6-283] | 0.41 nM
7 | Cc1ccc(-c2cn3nc(C(=O)N[C@@H](CCO)c4ccc(F)cc4)c(C#N)c3c(=O)[nH]2)cc1C [Example 1-75, 3-Cyano-6-(3,4-dimethylphenyl)-N-[(1S)-1-(4-fluorophenyl)-3-hydroxpropyl]-4-oxo-4,5-dihydropyrazolo[1,5-a]pyrazine-2-carboxamide] | 8.75 nM
8 | Cc1c(C(=O)NC(CCO)c2ccccc2Cl)nn2c(C)c(-c3ccc4ccccc4c3)[nH]c(=O)c12 (stereo not shown) [Example 3-68, N-[1-(2-Chlorophenyl)-3-hydroxypropyl]-3,7-dimethyl-6-(2-naphthyl)-4-oxo-5H-pyrazolo[1,5-a]pyrazine-2-carboxamide] | 1.85 nM
9 | CC(C)(O)[C@@H](NC(=O)c1nn2cc(-c3cc(F)c(Cl)cc3F)[nH]c(=O)c2c1C1CC1)c1ccc(F)cc1 [6-584] | 7.4 nM
10 | Cc1cc(-c2cn3nc(C(=O)NC4(c5ccc(F)cc5)CN(CC(F)(F)F)C4)c(C4CC4)c3c(=O)[nH]2)ccc1Cl [6-344] | 0.99 nM
11 | Cc1ccc(-c2cn3nc(C(=O)NC4(c5ccc(F)cc5)CNC4)c(C(F)(F)F)c3c(=O)[nH]2)cc1C [Example 1-175, 6-(3,4-Dimethylphenyl)-N-[3-(4-fluorophenyl)azetidin-3-yl]-4-oxo-3-(trifluoromethyl)-4,5-dihydropyrazolo[1,5-a]pyrazine-2-carboxamide-hydrogen chloride (1/1)] | 5 nM
12 | Cc1cccc2ncc(-c3cn4nc(C(=O)N[C@@H](c5ccc(F)cc5)C(C)(C)O)c(C(C)C)c4c(=O)[nH]3)cc12 [Example 1-89, N-[(1S)-1-(4-Fluorophenyl)-2-hydroxy-2-methylpropyl]-6-(5-methylquinolin-3-yl)-4-oxo-3-(propan-2-yl)-4,5-dihydropyrazolo[1,5-a]pyrazine-2-carboxamide] | 1.03 nM
13 | Cc1ccc(-c2cn3nc(C(=O)NCCC(O)C(F)(F)F)c(C4CC4)c3c(=O)[nH]2)cc1F (racemic) [6-366] | 2.2 nM
14 | Cc1c(C(=O)NC2(c3ccc(C#N)cc3)CC2)nn2c(C)c(-c3ccc4ccccc4c3)[nH]c(=O)c12 [Example 3-27, N-[1-(4-Cyanophenyl)cyclopropyl]-3,7-dimethyl-6-(naphthalen-2-yl)-4-oxo-4,5-dihydropyrazolo[1,5-a]pyrazine-2-carboxamide] | 2.1 nM
15 | O=C(NC(CO)c1ccc(F)cc1)c1cc2c(=O)[nH]c(-c3ccc4cccc(F)c4c3)cn2n1 (stereo not shown) [6-37] | 1.31 nM
16 | COC[C@H](C)NC(=O)c1nn2cc(-c3ccc4ccccc4c3)[nH]c(=O)c2c1C(F)(F)F [6-515] | 3 nM
17 | Cc1c(C(=O)N[C@H]2c3ccccc3C[C@H]2O)nn2c(C)c(-c3ccc4ccccc4c3)[nH]c(=O)c12 [Example 3-67, N-[(7S,2R)-2-Hydroxy-2,3-dihydro-1H-inden-1-yl]-3,7-dimethyl-6-(naphthalen-2-yl)-4-oxo-4,5-dihydropyrazolo[1,5-a]pyrazine-2-carboxamide] | 2.05 nM
18 | Cc1ccc(-c2cn3nc(C(=O)NC(C)C4CCC4)c(C(F)(F)F)c3c(=O)[nH]2)cc1Cl (racemic) [6-193] | 4.05 nM
19 | Cc1ccc(-c2cn3nc(C(=O)NC(c4ccc(F)cc4)C4(O)CC4)c(C4CC4)c3c(=O)[nH]2)cc1F (single isomer, unassigned) [6-383] | 1.6 nM

Row | SMILES | IC50
20 | Cc1c(C(=O)NC2(c3ccc(Cl)cc3)CCC2)nn2c(C)c(-c3ccc4ccccc4c3)[nH]c(=O)c12 [Example 3-32, N-[1-(4-Chlorophenyl)cyclobutyl]-3,7-dimethyl-6-(naphthalen-2-yl)-4-oxo-4,5-dihydropyrazolo[1,5-a]pyrazine-2-carboxamide] | 5.8 nM
21 | Cc1ccc(-c2cn3nc(C(=O)N[C@H](C)CO)c(C4CCC4)c3c(=O)[nH]2)cc1F [6-575] | 1.95 nM
22 | Cc1ccc(-c2cn3nc(C(=O)NC(CN(C)C)c4ccc(F)cc4)c(C4CC4)c3c(=O)[nH]2)cc1C (single isomer, unassigned) [6-445] | 7.1 nM
23 | Cc1ccc(-c2cn3nc(C(=O)NCC(O)C(F)(F)F)c(C4CC4)c3c(=O)[nH]2)cc1C(F)(F)F (single isomer, unassigned) [6-245] | 1.35 nM
24 | Cc1ccc(-c2cn3nc(C(=O)NC4(c5ccc(F)cc5)CN(CC(F)(F)F)C4)c(C(F)(F)F)c3c(=O)[nH]2)cc1Cl [6-201] | 3.05 nM
25 | COc1ccc([C@H](CCO)NC(=O)c2nn3cc(-c4ccc5ccccc5c4)[nH]c(=O)c3c2C#N)cc1 [Example 3-63, 3-Cyano-N-[(1S)-3-hydroxy-1-(4-methoxyphenyl)propyl]-6-(naphthalen-2-yl)-4-oxo-4,5-dihydropyrazolo[1,5-a]pyrazine-2-carboxamide] | 3.9 nM
26 | CC[C@@H](C)NC(=O)c1nn2cc(-c3ccc(C)c(C)c3)[nH]c(=O)c2c1C1CC1 [Example 1-142, N-[(2R)-Butan-2-yl]-3-cyclopropyl-6-(3,4-dimethylphenyl)-4-oxo-4,5-dihydropyrazolo[1,5-a]-pyrazine-2-carboxamide] | 1.16 nM
27 | CCn1nccc1CNC(=O)c1nn2cc(-c3cnc4cccc(C)c4c3)[nH]c(=O)c2c1C(C)C [Example 4-16, N-[(1-Ethyl-1H-pyrazol-5-yl)methyl]-6-(5-methylquinolin-3-yl)-4-oxo-3-(propan-2-yl)-4,5-dihydropyrazolo[1,5-a]pyrazine-2-carboxamide] | 0.5 nM
28 | C[C@@H](NC(=O)c1cc2c(=O)[nH]c(-c3ccc4c(c3)N(C)CCO4)cn2n1)c1ccc(F)cc1 [Example 1-102, N-[(1R)-1-(4-Fluorophenyl)ethyl]-6-(4-methyl-3,4-dihydro-2H-1,4-benzoxazin-6-yl)-4-oxo-4,5-dihydropyrazolo[1,5-a]pyrazin-2-carboxamide] | 1.35 nM
29 | CC(NC(=O)c1cc2c(=O)[nH]c(-c3ccc4ccccc4c3)cn2n1)c1ccccc1 (stereo not shown) [Example 2-1, 6-(2-Naphthyl)-4-oxo-N-(1-phenylethyl)-5H-pyrazolo[1,5-a]pyrazine-2-carboxamide] | 2.07 nM
30 | O=C(N[C@H](CCO)c1ccc(F)cc1)c1nn2cc(-c3ccc(Cl)cc3)[nH]c(=O)c2c1C1CC1 [6-674] | 0.79 nM
31 | Cc1ccc(-c2cn3nc(C(=O)NC4(c5ccc(F)cc5)CN(CC(F)F)C4)c(C(F)(F)F)c3c(=O)[nH]2)cc1Cl [6-202] | 0.97 nM
32 | CC(NC(=O)c1nn2cc(-c3ccc4ccccc4c3)[nH]c(=O)c2c1C#N)c1cccc(Br)c1 (stereo not shown) [Example 3-47, N-[1-(3-Bromophenyl)ethyl]-3-cyano-6-(2-naphthyl)-4-oxo-5H-pyrazolo[1,5-a]pyrazine-2-carboxamide] | 5.45 nM
33 | COc1ccc(C(C)NC(=O)c2nn3cc(-c4cnc5cccc(C)c5c4)[nH]c(=O)c3c2C(C)C)cc1F (stereo not shown) [Example 4-71, N-[1-(3-Fluoro-4-methoxyphenyl)ethyl]-3-isopropyl-6-(5-methyl-3-quinolyl)-4-oxo-5H-pyrazolo[1,5-a]pyrazine-2-carboxamide] | 2.4 nM
34 | CC(C)(O)[C@@H](NC(=O)c1nn2cc(-c3ccc(Cl)c(F)c3)[nH]c(=O)c2c1C1CC1)c1ccc(F)cc1 [Example 1-167, 6-(4-Chloro-3-fluorophenyl)-3-cyclopropyl-N-[(15)-1-(4-fluorophenyl)-2-hydroxy-2-methylpropyl]-4-oxo-4,5-dihydropyrazolo[1,5-a]pyrazine-2-carboxamide] | 2.2 nM
35 | CN1CC(NC(=O)c2nn3cc(-c4ccc(Cl)c(F)c4)[nH]c(=O)c3c2C2CC2)(c2ccc(F)cc2)C1 [Example 1-169, 6-(4-Chloro-3-fluorophenyl)-3-cyclopropyl-N-[3-(4-fluorophenyl)-1-methylazetidin-3-yl]-4-oxo-4,5-dihydropyrazolo[1,5-a]pyrazine-2-carboxamide] | 3.35 nM
36 | Cc1ccc(-c2cn3nc(C(=O)N[C@@H](C)C4CC4)c(C4CC4)c3c(=O)[nH]2)cc1C [6-439] | 1 nM
37 | Cc1ccc(-c2cn3nc(C(=O)NC(C)c4ccc(O)cc4)cc3c(=O)[nH]2)cc1C (stereo not shown) [Example 1-137, 6-(3,4-Dimethylphenyl)-N-[1-(4-hydroxphenyl)ethyl]-4-oxo-5H-pyrazolo[1,5-a]pyrazine-2-carboxamide] | 2.9 nM
